{"source": "paper PMC6302903", "about": "“Protein and Chemical Determinants of BL-1249 Action and Selectivity for K2P Channels” (ACS Chemical Neuroscience, 2018)", "key": {"[1]": {"target": "T1, K2P4.1(TRAAK) (Mus musculus, UniProt O88454)", "T1 construct": "expressed in transfected cells; host or cells: Xenopus laevis oocytes injected with mRNA made from pGEMHE/pMO", "T1 sequence (O88454 1-398)": "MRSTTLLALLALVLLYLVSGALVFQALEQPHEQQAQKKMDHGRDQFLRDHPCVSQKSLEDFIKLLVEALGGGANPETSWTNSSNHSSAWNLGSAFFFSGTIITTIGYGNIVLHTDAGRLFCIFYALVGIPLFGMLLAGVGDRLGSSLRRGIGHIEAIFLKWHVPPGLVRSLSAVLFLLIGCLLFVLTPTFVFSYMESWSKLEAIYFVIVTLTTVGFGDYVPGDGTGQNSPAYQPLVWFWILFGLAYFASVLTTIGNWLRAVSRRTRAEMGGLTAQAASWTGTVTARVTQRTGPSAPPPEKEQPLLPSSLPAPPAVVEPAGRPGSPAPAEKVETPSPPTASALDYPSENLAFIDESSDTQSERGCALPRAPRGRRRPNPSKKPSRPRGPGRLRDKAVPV", "experiment": "TEVC of K2P4.1(TRAAK) in Xenopus oocytes", "type": "cell-based", "source_text": "Constructs for murine K2P channels, including K2P2.1(TREK-1) (Gene ID 16526), K2P10.1(TREK-2) (Gene ID 72258), K2P4.1(TRAAK) (Gene ID 16528), K2P5.1(TASK-2) (Gene ID 16529), K2P3.1(TASK-1) (Gene ID 16527), K2P9.1(TASK-3) (Gene ID 223604), and K2P18.1(TRESK) (Gene ID 332396) in pGEMHE/pMO, were used for Xenopus oocyte experiments as previously described.[10],[26] Murine K2P2.1(TREK-1) (Gene ID 16526) was expressed in HEK-293 cells using a pIRES-EGFP construct as previously described.[26] Murine K2P13.1(THIK-1) (Gene ID 217826) and K2P1.1(TWIK-1) (Gene ID 16525) were cloned into pGEMHE/pMO for use in Xenopus oocytes. Chimeras were designed using EMBOSS Needle pairwise sequence alignment tool[58] to match homologous helices in K2P2.1(TREK-1) and K2P4.1(TRAAK) and were assembled using the Gibson assembly method.[59] Chimera boundaries are Thr152 (TREK-1/AAK M2-C), Trp199 (TREK-1/AAK M3-C), Y272 (TREK-1/AAK M4-C), Thr114 (TRAAK/EK-1 M2-C), Trp161 (TRAAK/EK-1 M3-C), and Tyr234 K2P4.1(TRAAK). All sequences were verified using DNA sequencing.\nXenopus laevis oocytes were harvested in accordance with UCSF IACUC protocol AN129690 and digested in calcium-free ND-96 (96 mM NaCl, 2 mM KCl, 3.8 mM MgCl2) immediately following harvest, as previously described.[6],[10] Digested oocytes were maintained in standard ND96 (96 mM NaCl, 2 mM KCl, 1.8 mM CaCl2, 2 mM MgCl2) with antibiotics (100 units mL^–1 penicillin, 100 μg mL^–1 streptomycin, 50 μg mL^–1 gentimycin). Defolliculated stage V–VI oocytes were injected with 0.2–6.0 ng of mRNA in 50 nL, and currents were recorded 24–48 h after injection. mRNA was synthesized from plasmid DNA using mMessage mMachine Kit (T7 promoter, Ambion, Life Technologies) and purified using RNEasy Kit (Qiagen). Injected oocytes were impaled with two standard microelectrodes (0.2–1.0 MΩ) filled with 3 M KCl and subjected to constant perfusion of standard ND96 during recording. Currents were amplified using the GeneClamp 500B (MDS Analytical Technologies) amplifier controlled by the pClamp software (Molecular Devices). Data were digitized at 1 kHz using Digidata 1332A (MDS Analytical Technologies). For all experiments with small molecules, basal currents were evoked using 1 s long ramps from −150 to +50 mV under constant perfusion of ND96. Once stabilized basal currents were recorded, compounds were perfused at various concentrations in standard ND96 and currents were allowed to increase to stabilization before recording final current. Fold activation upon compound application is expressed as I/I0 (0 mV), derived from the current at 0 mV in the presence of compound divided by the basal current at 0 mV in standard ND96 without compound. Data were analyzed and plotted using Graphpad Prism Version 5 (GraphPad Software, San Diego California USA, www.graphpad.com). […] In the case of BL-1249-acid EC50 estimation, upper bound of I/I0 was set to 20 to account for the strong stimulation of BL-1249-acid."}, "[2]": {"target": "T2, K2P2.1(TREK-1)GGG (Mus musculus, UniProt P97438, D309G/I307G)", "T2 construct": "expressed in transfected cells; host or cells: Xenopus laevis oocytes, mRNA injected", "T2 sequence (P97438 1-411 isoform P97438-2 I292G/D294G)": "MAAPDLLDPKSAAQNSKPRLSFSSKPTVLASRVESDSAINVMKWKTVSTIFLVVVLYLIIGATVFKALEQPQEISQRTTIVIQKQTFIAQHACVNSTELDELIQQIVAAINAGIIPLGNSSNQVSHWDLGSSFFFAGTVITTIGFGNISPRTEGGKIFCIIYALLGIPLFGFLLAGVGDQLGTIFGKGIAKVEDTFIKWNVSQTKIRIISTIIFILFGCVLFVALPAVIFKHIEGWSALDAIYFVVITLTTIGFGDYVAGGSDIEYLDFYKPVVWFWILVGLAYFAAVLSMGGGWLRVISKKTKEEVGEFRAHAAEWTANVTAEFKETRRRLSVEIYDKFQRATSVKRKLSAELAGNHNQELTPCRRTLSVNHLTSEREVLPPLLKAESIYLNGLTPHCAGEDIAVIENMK", "experiment": "TEVC of triple-glycine mutant uncoupling the C-terminal tail", "type": "cell-based", "conditions": "Xenopus oocytes", "source_text": "Gating stimuli detected by sensors in various parts of the channel converge on the K2P selectivity filter C-type gate.[6],[8],[10],[12],[35] Because the C-terminal tail is the sensor for K2P2.1(TREK-1) activation by both physiological[41]−[46] and chemical[45],[47] activators, we asked whether uncoupling the C-terminal tail from the channel using a triple-glycine mutant at the M4/C-terminal tail junction, K2P2.1(TREK-1)GGG,[41] impacted the BL-1249 response. […]\n(§1) Xenopus laevis oocytes were harvested in accordance with UCSF IACUC protocol AN129690 and digested in calcium-free ND-96 (96 mM NaCl, 2 mM KCl, 3.8 mM MgCl2) immediately following harvest, as previously described.[6],[10] […] Defolliculated stage V–VI oocytes were injected with 0.2–6.0 ng of mRNA in 50 nL, and currents were recorded 24–48 h after injection. mRNA was synthesized from plasmid DNA using mMessage mMachine Kit (T7 promoter, Ambion, Life Technologies) and purified using RNEasy Kit (Qiagen). […] Once stabilized basal currents were recorded, compounds were perfused at various concentrations in standard ND96 and currents were allowed to increase to stabilization before recording final current. Fold activation upon compound application is expressed as I/I0 (0 mV), derived from the current at 0 mV in the presence of compound divided by the basal current at 0 mV in standard ND96 without compound. […]"}, "[3]": {"target": "T3, K2P9.1(TASK-3) (Mus musculus, UniProt Q3LS21)", "T3 construct": "expressed in transfected cells; host or cells: Xenopus laevis oocytes (mRNA injection, pGEMHE/pMO)", "T3 sequence (Q3LS21 whole entry)": "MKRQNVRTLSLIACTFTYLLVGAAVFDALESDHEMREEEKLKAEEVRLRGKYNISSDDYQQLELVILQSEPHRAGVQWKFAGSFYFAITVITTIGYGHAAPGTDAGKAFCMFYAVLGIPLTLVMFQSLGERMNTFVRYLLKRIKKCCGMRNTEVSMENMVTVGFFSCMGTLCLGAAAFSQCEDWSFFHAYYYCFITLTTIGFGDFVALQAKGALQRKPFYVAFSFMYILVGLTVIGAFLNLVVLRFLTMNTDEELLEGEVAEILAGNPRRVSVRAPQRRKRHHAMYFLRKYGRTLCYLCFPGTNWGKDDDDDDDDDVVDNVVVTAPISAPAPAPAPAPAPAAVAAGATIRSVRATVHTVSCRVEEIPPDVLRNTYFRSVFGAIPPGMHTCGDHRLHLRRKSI", "experiment": "TEVC of K2P9.1(TASK-3) in Xenopus oocytes", "type": "cell-based", "conditions": "concentrations up to the solubility limit (∼80 μM)", "experimental": "(§2) BL-1249 activates K2P2.1(TREK-1)[18],[40] and K2P10.1(TREK-2),[7] but its effects on other K2P channels have not been characterized. […] In order to test if the original 10 μM assay had missed BL-1249 effects in other K2P channels, we tested concentrations of BL-1249 up to the solubility limit (∼80 μM) against the other K2P subfamily representatives. […]\nas §1, with “compound. Data were analyzed and plotted using Graphpad Prism Version 5 (GraphPad Software, San Diego California USA, www.graphpad.com).” for “compound.”"}, "[4]": {"target": "T4, K2P18.1(TRESK) (Mus musculus, UniProt Q6VV64)", "T4 construct": "expressed in transfected cells; host or cells: Xenopus laevis oocytes (mRNA injection, pGEMHE/pMO)", "T4 sequence (Q6VV64 whole entry)": "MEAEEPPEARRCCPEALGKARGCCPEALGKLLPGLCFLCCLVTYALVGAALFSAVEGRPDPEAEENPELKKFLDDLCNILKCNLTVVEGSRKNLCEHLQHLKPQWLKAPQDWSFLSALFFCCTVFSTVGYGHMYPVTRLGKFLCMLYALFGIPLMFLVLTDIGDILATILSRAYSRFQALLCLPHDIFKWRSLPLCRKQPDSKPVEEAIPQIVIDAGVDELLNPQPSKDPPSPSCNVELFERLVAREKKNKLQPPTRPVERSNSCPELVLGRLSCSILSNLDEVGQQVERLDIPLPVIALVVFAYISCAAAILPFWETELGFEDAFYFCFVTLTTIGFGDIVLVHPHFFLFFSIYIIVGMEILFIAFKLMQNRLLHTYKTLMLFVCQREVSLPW", "experiment": "TEVC of K2P18.1(TRESK) in Xenopus oocytes", "type": "cell-based", "conditions": "concentrations up to the solubility limit (∼80 μM)", "experimental": "as §2\nas §1, with “compound. Data were analyzed and plotted using Graphpad Prism Version 5 (GraphPad Software, San Diego California USA, www.graphpad.com).” for “compound.”"}, "[5]": {"tested_on": "K2P18.1(TRESK)", "design": "method as in PMID 27641472", "conditions": "cited from earlier work"}}, "data": [{"smiles": "c1ccc(-c2nnn[nH]2)c(Nc2cccc3c2CCCC3)c1", "note": "[BL-1249, (5,6,7,8-tetrahydro-naphthalen-1-yl)-[2-(1H-tetrazol-5-yl)-phenyl]-amine]", "values": [{"measurement": "selectivity for K2P2.1(TREK-1) and K2P10.1(TREK-2) over K2P4.1(TRAAK) (EC50)", "setting": "[1]", "result": "~10", "unit": "fold"}, {"measurement": "K2P4.1(TRAAK) current response", "setting": "[1]; 10 μM", "result": "weakly stimulated"}, {"measurement": "EC50", "setting": "[1]; saturation not reached (solubility limit), fit with upper boundary of 15 (I/I0)", "result": "48 ± 10", "unit": "µM"}, {"measurement": "EC50", "setting": "[2]", "result": "19 ± 1", "unit": "µM"}, {"measurement": "activation of K2P9.1(TASK-3)", "setting": "[3]", "result": "failed to find evidence for activation"}, {"measurement": "activation of K2P18.1(TRESK)", "setting": "[4]", "result": "failed to find evidence for activation"}, {"measurement": "functional effect on K2P18.1(TRESK)", "setting": "[5]", "result": "activator"}]}]}
